# Measured values reported in ChEMBL document CHEMBL1201862, “PubChem BioAssay data set” (2004).
#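 Exposure lasted 48 hours, with cells grown in 96-well plates and compounds tested at five concentrations. Abbreviation: GI50, concentration required for 50% inhibition of growth.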 Calls of active or inactive are those of the source. No stated cut-off is given here; in the data, active = GI50 up to about 1.1 µM and inactive = higher.
# Experiments:
# Test in all cases: inhibition of tumour cell growth, NCI panel, 48 h
# BT-549 = test system: BT-549
# LOX IMVI = test system: LOX IMVI
# NCI-H23 = test system: NCI-H23
# KM12 = test system: KM12
# A549 = test system: A549
# NCI-H226 = test system: NCI-H226
# NCI-H460 = test system: NCI-H460
# MDA-N = test system: MDA-N
# M14 = test system: M14
# UACC-62 = test system: UACC-62
# HOP-62 = test system: HOP-62
# NCI-H522 = test system: NCI-H522
# PC-3 = test system: PC-3
# COLO 205 = test system: COLO 205
# MOLT-4 = test system: MOLT-4
# SK-MEL-5 = test system: SK-MEL-5
# RXF 393 = test system: RXF 393
# HT-29 = test system: HT-29
# Malme-3M = test system: Malme-3M
# U-251 = test system: U-251
# OVCAR-4 = test system: OVCAR-4
# Hs-578T = test system: Hs-578T
# CAKI-1 = test system: CAKI-1
# HL-60 = test system: HL-60
# DU-145 = test system: DU-145
# OVCAR-8 = test system: OVCAR-8
# SNB-19 = test system: SNB-19
# SF-268 = test system: SF-268
# HCT-15 = test system: HCT-15
# MDA-MB-435 = test system: MDA-MB-435
# K562 = test system: K562
# RPMI-8226 = test system: RPMI-8226
# OVCAR-3 = test system: OVCAR-3
# SW-620 = test system: SW-620
# UACC-257 = test system: UACC-257
# MDA-MB-231 = test system: MDA-MB-231
# HCC 2998 = test system: HCC 2998
# CCRF-CEM = test system: CCRF-CEM
# OVCAR-5 = test system: OVCAR-5
# 786-0 = test system: 786-0
# A498 = test system: A498
# SK-MEL-28 = test system: SK-MEL-28
# EKVX = test system: EKVX
# MCF7 = test system: MCF7
# SN12C = test system: SN12C
# ACHN = test system: ACHN
# SK-OV-3 = test system: SK-OV-3
# NCI/ADR-RES = test system: NCI/ADR-RES
# IGROV-1 = test system: IGROV-1
# SF-295 = test system: SF-295
# SF-539 = test system: SF-539
# T47D = test system: T47D
# HCT-116 = test system: HCT-116
# TK-10 = test system: TK-10
# SK-MEL-2 = test system: SK-MEL-2
# SNB-75 = test system: SNB-75
# HOP-92 = test system: HOP-92
# UO-31 = test system: UO-31
compound,measurement,setting,value
C/C=C(\C)C(=O)O[C@@H]1CC(C)(C)CC2C3=CCC4[C@]56CC[C@](O)(OC5)C(C)(C)C6CC[C@@]4(C)C3(C)CC[C@]21C(=O)O (some centres not stated),GI50,BT-549,> 100 µM (inactive)
same,GI50,LOX IMVI,25.9 µM (inactive)
same,GI50,NCI-H23,> 100 µM (inactive)
same,GI50,KM12,82.4 µM (inactive)
same,GI50,A549,53.3 µM (inactive)
same,GI50,NCI-H226,> 100 µM (inactive)
same,GI50,NCI-H460,78.2 µM (inactive)
same,GI50,MDA-N,> 100 µM (inactive)
same,GI50,M14,> 100 µM (inactive)
same,GI50,UACC-62,> 100 µM (inactive)
same,GI50,HOP-62,> 100 µM (inactive)
same,GI50,NCI-H522,> 100 µM (inactive)
same,GI50,PC-3,39.3 µM (inactive)
same,GI50,COLO 205,83.9 µM (inactive)
same,GI50,MOLT-4,> 100 µM (inactive)
same,GI50,SK-MEL-5,> 100 µM (inactive)
same,GI50,RXF 393,> 100 µM (inactive)
same,GI50,HT-29,97.1 µM (inactive)
same,GI50,Malme-3M,> 100 µM (inactive)
same,GI50,U-251,70.5 µM (inactive)
same,GI50,OVCAR-4,> 100 µM (inactive)
same,GI50,Hs-578T,> 100 µM (inactive)
same,GI50,CAKI-1,> 100 µM (inactive)
same,GI50,HL-60,28.4 µM (inactive)
same,GI50,DU-145,> 100 µM (inactive)
same,GI50,OVCAR-8,> 100 µM (inactive)
same,GI50,SNB-19,> 100 µM (inactive)
same,GI50,SF-268,> 100 µM (inactive)
same,GI50,HCT-15,83.4 µM
same,GI50,MDA-MB-435,> 100 µM (inactive)
same,GI50,K562,> 100 µM (inactive)
same,GI50,RPMI-8226,87.9 µM (inactive)
same,GI50,OVCAR-3,81.7 µM (inactive)
same,GI50,SW-620,> 100 µM (inactive)
same,GI50,UACC-257,> 100 µM (inactive)
same,GI50,MDA-MB-231,> 100 µM (inactive)
same,GI50,HCC 2998,> 100 µM (inactive)
same,GI50,CCRF-CEM,> 100 µM (inactive)
same,GI50,OVCAR-5,> 100 µM (inactive)
same,GI50,786-0,> 100 µM (inactive)
same,GI50,A498,> 100 µM (inactive)
same,GI50,SK-MEL-28,> 100 µM (inactive)
same,GI50,EKVX,> 100 µM (inactive)
same,GI50,MCF7,> 100 µM (inactive)
same,GI50,SN12C,> 100 µM (inactive)
same,GI50,ACHN,59.4 µM (inactive)
same,GI50,SK-OV-3,> 100 µM (inactive)
same,GI50,NCI/ADR-RES,> 100 µM (inactive)
same,GI50,IGROV-1,54.3 µM (inactive)
same,GI50,SF-295,> 100 µM (inactive)
same,GI50,SF-539,> 100 µM (inactive)
same,GI50,T47D,> 100 µM (inactive)
same,GI50,HCT-116,79.6 µM (inactive)
same,GI50,TK-10,> 100 µM (inactive)
same,GI50,SK-MEL-2,> 100 µM (inactive)
CCCCCCSC[C@H](OC(C)=O)[C@@H](OC(C)=O)[C@@H](OC(C)=O)[C@@H](COC(C)=O)OC(C)=O,GI50,BT-549,> 100 µM (inactive)
same,GI50,LOX IMVI,> 100 µM (inactive)
same,GI50,NCI-H23,> 100 µM (inactive)
same,GI50,KM12,41.9 µM (inactive)
same,GI50,A549,71.1 µM (inactive)
same,GI50,NCI-H226,> 100 µM (inactive)
same,GI50,NCI-H460,> 100 µM (inactive)
same,GI50,MDA-N,> 100 µM (inactive)
same,GI50,M14,89.7 µM (inactive)
same,GI50,UACC-62,> 100 µM (inactive)
same,GI50,HOP-62,> 100 µM (inactive)
same,GI50,SNB-75,> 100 µM (inactive)
same,GI50,PC-3,27.7 µM (inactive)
same,GI50,COLO 205,64.9 µM (inactive)
same,GI50,MOLT-4,26.9 µM (inactive)
same,GI50,SK-MEL-5,23.4 µM (inactive)
same,GI50,RXF 393,> 100 µM (inactive)
same,GI50,HT-29,> 100 µM (inactive)
same,GI50,Malme-3M,> 100 µM (inactive)
same,GI50,U-251,> 100 µM (inactive)
same,GI50,OVCAR-4,> 100 µM (inactive)
same,GI50,Hs-578T,> 100 µM (inactive)
same,GI50,CAKI-1,> 100 µM (inactive)
same,GI50,HL-60,33.6 µM (inactive)
same,GI50,DU-145,> 100 µM (inactive)
same,GI50,OVCAR-8,> 100 µM (inactive)
same,GI50,SNB-19,> 100 µM (inactive)
same,GI50,SF-268,> 100 µM (inactive)
same,GI50,HCT-15,62.5 µM
same,GI50,MDA-MB-435,> 100 µM (inactive)
same,GI50,K562,43.9 µM (inactive)
same,GI50,RPMI-8226,13.3 µM (inactive)
same,GI50,HOP-92,> 100 µM (inactive)
same,GI50,OVCAR-3,80.9 µM (inactive)
same,GI50,SW-620,> 100 µM (inactive)
same,GI50,UACC-257,> 100 µM (inactive)
same,GI50,MDA-MB-231,> 100 µM (inactive)
same,GI50,HCC 2998,> 100 µM (inactive)
same,GI50,CCRF-CEM,43.6 µM (inactive)
same,GI50,OVCAR-5,> 100 µM (inactive)
same,GI50,786-0,> 100 µM (inactive)
same,GI50,A498,> 100 µM (inactive)
same,GI50,SK-MEL-28,> 100 µM (inactive)
same,GI50,EKVX,> 100 µM (inactive)
same,GI50,MCF7,85.5 µM (inactive)
same,GI50,SN12C,> 100 µM (inactive)
same,GI50,ACHN,> 100 µM (inactive)
same,GI50,SK-OV-3,> 100 µM (inactive)
same,GI50,NCI/ADR-RES,> 100 µM (inactive)
same,GI50,UO-31,> 100 µM (inactive)
same,GI50,IGROV-1,83.8 µM (inactive)
same,GI50,SF-295,> 100 µM (inactive)
same,GI50,SF-539,> 100 µM (inactive)
same,GI50,T47D,38.6 µM (inactive)
same,GI50,HCT-116,49.9 µM (inactive)
same,GI50,TK-10,> 100 µM (inactive)
same,GI50,SK-MEL-2,> 100 µM (inactive)
